From US7538096B2, “Treatment and prevention of abnormal cellular proliferation” (The General Hospital Corporation, priority 2004, dated 2009)
Like-named read-outs stand apart in the source and are kept apart here.

Tests used:
[1] = system: fibroblast; experiment: fibroblast proliferation; type: cell-based; settings: unpublished data
[2] = histology of tumor tissue and organs from SCID mice bearing A549 cell tumor (FIGS. 14-18); type: in vivo
[3] = system: coagulation; experiment: anticoagulant property (no test named)
[4] = system: tumor grown in SCID mice; experiment: apoptosis index in tumor grown in SCID mice (FIG. 19); type: in vivo
[5] = system: Rb; experiment: expression of Rb gene product in A549 cell tumor tissue (FIG. 21); type: in vivo; settings: A549 cell tumor tissue grown in SCID mice, dose dependent, lesser effect than on p27/KIP1, FIG. 21
[6] = system: HCT116 (colon cancer) cell tumor; experiment: HCT116 cell tumor growth in SCID mice (FIGS. 11-12); type: in vivo; settings: dose dependent
[7] = system: E2F1; experiment: expression of E2F1 protein in A549 cell tumor tissue (FIG. 22); type: in vivo; settings: A549 cell tumor tissue grown in SCID mice, dose dependent
[8] = system: p27/KIP1; settings: A549 cell tumor tissue grown in SCID mice, dose dependent, FIG. 20
[9] = system: coagulation; experiment: coagulation time (FIG. 13); settings: for coagulation time: FIG. 13
[10] = system: A549 (non-small cell lung carcinoma) cell tumor; experiment: A549 cell tumor growth in SCID mice (FIGS. 6-8); type: in vivo; settings: dose dependent
[11] = system: DMS79 (small cell lung carcinoma) cell tumor; experiment: DMS79 cell tumor growth in SCID mice (FIGS. 9-10); type: in vivo; settings: dose dependent
[12] = system: pulmonary artery smooth muscle cell; settings: in vivo, FIG. 4
[13] = system: bovine pulmonary artery smooth muscle cells; settings: in vitro, in comparison to non-acylated heparin fragments
[14] = system: pulmonary hypertension induced by hypoxia; settings: pig lung, FIG. 5
[15] = system: pulmonary fibrosis in response to bleomycin; experiment: pulmonary fibrosis in the rat in response to bleomycin; type: in vivo
[16] = system: fibroblast; settings: Dahlberg et al. Am Rev. Respir. Dis. 143:A357, 1993; cited from earlier work

For “O-butanoylated LMW Heparin [butanoylated heparin]”, which fibroblast proliferation [1] is on record?
Its fibroblast proliferation is “can also inhibit”.

What about the “toxic effect on heart, liver, kidney, and lung” value ([2]; animals tested, FIG. 15-18) of the same substance?
The value was “no toxic effect”.

What about the anticoagulant property [3] of the same substance?
The anticoagulant property was “virtually no”.

What about the apoptosis index [4] of the same substance?
Its apoptosis index is “induction of apoptosis”.

And the “expression of Rb gene product” value [5]?
The value was “decreased”.

What about the tumor growth ([6]; FIG. 11) of the same substance?
Its tumor growth is “significantly inhibited”.

And the tumor growth ([6]; FIG. 12)?
Its tumor growth is “significantly inhibited”.

What about the “expression of E2F1 protein” value [7] of the same substance?
Its value is “significantly inhibited”.

And the “expression of p27/KIP1 gene product” value [8]?
The value was “significantly inhibited”.

And the coagulation time [9]?
The coagulation time was “no significant effect”.

And the anticoagulant effects ([9]; compared to non-acylated controls, FIGS. 13 and 14)?
The anticoagulant effects was “very low”.

And the tumor growth ([10]; FIG. 6)?
The tumor growth was “significantly inhibited”.

And the tumor weight ([10]; FIG. 7)?
The tumor weight was “significantly decreased”.

What about the “percent inhibition of tumor growth” value ([10]; FIG. 8) of the same substance?
Its value is “significantly inhibited”.

And the tumor growth ([11]; FIG. 9)?
The tumor growth was “significantly inhibited”.

What about the tumor weight ([11]; FIG. 10) of the same substance?
Its tumor weight is “significantly decreased”.

What does the source list for “O-Hexanoyl derivative of periodate-oxidized heparin fragments [hexanoylated heparin]”?
pulmonary artery smooth muscle cell proliferation [12]: significantly inhibited; fibroblast proliferation [1]: can also inhibit; antiproliferative effect [13]: significantly enhanced; development of pulmonary hypertension [14]: significantly inhibited

For “heparin [Native heparin, reference compound]”, which pulmonary fibrosis [15] is on record?
The pulmonary fibrosis was “can inhibit”.

And the “hemorrhage in A549 cell tumor tissue (histology)” value ([2]; 100 mg/kg, SCID mice, FIG. 14)?
Its value is “Hemorrhage was detected”.

What about the apoptosis index [4] of the same substance?
The apoptosis index was “significantly induces apoptosis”.

What about the fibroblast proliferation [16] of the same substance?
Its fibroblast proliferation is “can inhibit”.

What about the coagulation time [9] of the same substance?
Its coagulation time is “increased”.
